# Measured values reported in patent US20220040263A1, “COMPANION DIAGNOSTIC FOR COMBINATION LENALIDOMIDE AND ERYTHROPOIETIN TREATMENT” (H. Lee Moffitt Cancer Center and Research Institute, Inc., priority 2016, published 2022).
# What was measured:
# UT-7 cells = experiment: UT7 colony forming assay with or without EPO; type: cell-based
# Procedure: FIGS. 1A and 1B show Lenalidomide potentiates clonogenic response to […]. […] Colonies were scored after 14 days incubation and the growth of bone marrow colony-forming unit granulocyte, erythroid, macrophage, megakaryocyte (CFU-GEMM); burst-forming unit-erythroid (BFU-E); and colony-forming unit granulocyte-macrophage (CFU-GM) assessed. […] Cells were then plated in methylcellulose+10% FBS, 2000 cells/well, with or without erythropoietin (EPO). Colonies were scored at day seven.
# When UT7 cells were exposed to lenalidomide prior to culture initiation with EPO, supra-additive colony forming capacity was observed that exceeded growth induced by EPO and/or lenalidomide treatments [P=0.001].
# [1] = system: Jak2 and STAT5 phosphorylation in UT7 cells; experiment: Jak2 and STAT5 phosphorylation in UT7 cells with JAK or Src kinase inhibitors (Western); type: cell-based
# Procedure: 10×10^7 UT7 cells were serum starved then treated with SKI 606 or AG490 for 30 minutes, CC5013 for 2 hours, and stimulated with EPO (1 U/ml) for 10 minutes at 37° C. Cells were lysed and […] run on a 4-15% Gradient gel (Bio-rad). Antibodies included p-STAT5 (Upstate, 1:1000 in 5% TBS/milk), total STAT5 (Cell Signaling, 1:10000 in 5% TBS/milk), and p-Jak2 (Santa Cruz, 1:500 in 5% TBS/milk). Blots were developed with an ECL detection kit (Amersham).
# To further evaluate the mechanism by which lenalidomide enhances the EPO-R signal, STAT5 activation was assessed in response to EPO+lenalidomide treatment using selective pharmacologic inhibitors of JAK (AG490) or Src ([…]) kinases [FIG. 4].
# STAT5 = experiment: EPO-induced phospho-STAT5 MFI in CD71+ primary MDS cells by flow cytometry; type: cell-based, human
# Procedure: BM-MNC were serum deprived in IMDM and 0.4% BSA for 1 hour, then treated as described in FIG. 5. RHu-EPO stimulated cells were treated 5 U/ml×15 minutes at 37° C. Cells were fixed in BD Cytofix (Beckon Dickenson) ×10 minutes, washed in BD Stain Buffer then re-suspended in ice cold 90% methanol. After washing ×2, cells were stained with anti-pSTAT5-phycoerthryin (PE) conjugated antibody and CD71-allophycocyanin (APC) conjugated antibody [20 μg/10^6 cells]. Cells were washed ×2 with stain buffer before transfer to FACScan tubes and analysis on the FACScan flow cytometer. The gated CD71+ cell population accounted for 11.35% of BM-MNC. Results reflect phospho-STAT5:PE MFI in a representative patient specimen. Anti-pSTAT5, CD71-APC and CD34-APC antibodies were purchased from BD-Pharmingen.
# To confirm that lenalidomide enhances STAT5 phosphorylation in erythroid precursors from primary BM specimens, BM specimens were evaluated from Low- or Intermediate-1 risk MDS by flow cytometry. As in the UT7 cell line, lenalidomide increased EPO-induced phosphorylation of STAT5 in CD71+ erythroid precursors, whereas lenalidomide alone had no effect on STAT5 phosphorylation [FIG. 3]. The STAT5 phosphorylation delta (PD), i.e., the increase in mean fluorescence intensity (MFI) for EPO-induced STAT5 phosphorylation with the addition of lenalidomide compared to EPO alone was 43.5 relative MFI units, representing a 24% increase in pSTAT5 MF.
# c-Src = c-Src activation (p-Src416, p-Src527, Bcl-XL) in UT7 cells by Western immunoblot; type: cell-based
# Text: FIGS. 5A and 5B show lenalidomide potentiates c-Src activation. […] Cells were lysed and assayed for β-actin (Sigma), or Src, p-Src416, p-Src 527 and Bcl-XL (Cell Signaling) by Western immunoblot. Protein loading was normalized to β-actin. Relative Src activation in FIG. 5B represents the ratio of p-Src416 (activation site phosphorylation) to p-Src527 (C-terminal inhibitory p-tyrosine).
# To confirm that EPO-R signal potentiation by lenalidomide is associated with activation of Src and Lyn kinases, Src activation was evaluated using phospho-tyrosine specific antibodies that recognize either the activation loop tyrosine (Tyr416) or the C-terminal inhibitory tyrosine (Tyr527) of c-Src. Lenalidomide alone increased phosphorylation of Tyr416 by 50% compared to the vehicle treated control [FIG. 5].
# [2] = system: LR non-del(5q) MDS patients refractory to, or not candidates for, rhEpo; experiment: Randomized phase III trial LEN vs LEN+EA; type: in vivo, human
# Text: Treatment with rhu-Epo ameliorates anemia in a subset of LR-MDS patients, however, effective salvage therapy is limited. LEN promotes erythroid lineage competence and expansion of primitive erythroid precursors in vitro. In the MDS-002 and MDS-005 trials, treatment with LEN improved erythropoiesis, yielding RBC transfusion-independence in 26% of azanucleoside-naive, transfusion-dependent (TD) LR, non-del(5q) MDS patients for a median of 10.2 and 7.75 months, respectively. LEN restores Epo-responsiveness in MDS progenitors by inducing the formation of lipid rafts enriched for signaling competent JAK2/Epo-receptor complexes with exclusion of large isoforms of the JAK2/lyn kinase-phosphatase CD45 generated by alternative splicing (McGraw K, et. al. PLoS One 2014). […] To test this hypothesis, randomized phase III trial was performed comparing treatment with LEN to LEN+EA in LR non-del(5q) MDS patients who were refractory to, or not candidates for treatment with rhEpo.
# Patients with Low or Intermediate-1 (Int-1) risk IPSS MDS with hemoglobin <9.5 g/dL who were unresponsive to rhEpo treatment or were TD (>2 units/mo) with serum Epo >500 mU/mL were eligible for study. Patients were stratified by serum Epo level and prior rhEpo (EA vs. darbepoetin vs. none) then randomized to treatment with LEN 10 mg/d×21d q4 wk (Arm A) or LEN+EA 60,000 U SC/wk (Arm B). Primary endpoint was IWG 2006 major erythroid response (MER) rate after 4 cycles. Arm A non-responders were offered cross-over to combined therapy. Secondary endpoints included analysis of response biomarkers.
smiles,measurement,setting,value
"Nc1cccc2c1CN(C1CCC(=O)NC1=O)C2=O (centres unmarked) [lenalidomide, 3-(4-amino-1-oxo-1,3-dihydro-2H-isoindol-2-yl)piperidine-2,6-dione]",colony forming capacity,"UT-7 cells; UT7 cells exposed to lenalidomide prior to culture initiation with EPO, P=0.001",supra-additive
same,colony forming capacity,"UT-7 cells; lenalidomide 1 μM alone, UT7 cells",minimal effect
same,EPO-induced Jak2-phosphorylation,[1]; lenalidomide + EPO (Lane 7),further augmented
same,Jak2-phosphorylation,[1]; lenalidomide alone (Lane 2),increased
same,EPO-induced phosphorylation of STAT5,"STAT5; CD71+ erythroid precursors, Low- or Intermediate-1 risk MDS BM",increased
same,STAT5 phosphorylation,"STAT5; CD71+ erythroid precursors, lenalidomide alone",no effect
same,STAT5 phosphorylation delta (PD): increase in MFI for EPO-induced STAT5 phosphorylation with lenalidomide compared to EPO alone,"STAT5; CD71+ primary MDS cells, representative patient specimen",43.5 relative MFI units
same,increase in pSTAT5 MFI,"STAT5; EPO + lenalidomide compared to EPO alone, CD71+ cells",24%
same,increase in phosphorylation of Src Tyr416 compared to the vehicle treated control,c-Src; lenalidomide alone,50%
same,Src activation compared to the vehicle control,"c-Src; lenalidomide combined with EPO, supra-additive",~3 fold
same,EPO-dependent induction of Bcl-XL,c-Src; lenalidomide pre-treatment,augmented
same,MER rate among patients evaluable at week 16,"[2]; 116 evaluable patients, P=0.018",14.3%
same,"major erythroid response (MER) rate, ITT analysis","[2]; IWG 2006 MER, interim analysis of 163 patients, P=0.015",9.9%
same,median duration of response,[2]; MER responders,not reached
